Source: patent US7671023B2 (Amylin Pharmaceuticals, Inc., priority 2005, dated 2010)

Columns and labels:
test animals = experiment: amylin activity in vivo in treated test animals (hyperlactemia followed by hyperglycemia); settings: e.g., provoking marked hyperlactemia followed by hyperglycemia
mice [1] = experiment: marble burying; assay type: in vivo, mouse; settings: for reduction in marble burying, statistical significance: amylin at 10 mg/kg, buspirone at 20 mg/kg, P<0.05; for number of marbles buried in 30 minutes: injected 15-30 minutes prior to test, rat amylin 0.1, 1.0 or 10 mg/kg, buspirone 20/kg, FIG. 3
Protocol: (§1) These specific behavioral tests are known to be sensitive to anxiolytic, antidepressant, or antipsychotic drugs.
Marble burying is used as a model for both anxiety and obsessive-compulsive disorder. See, for example, Chaki et al. (2003) J. Pharmacol. Exp. Ther. 304:818-826. Anxiolytics suppress marble burying activity. […] Mice were then placed individually in clean cages containing 5-cm of hard wood bedding and 20 marbles spaced evenly in rows of five. The number of marbles buried in 30 minutes was recorded. […] Buspirone is a partial 5-HT1A agonist and an known anxiolytic agent.

mice [2] = experiment: prepulse inhibition (PPI) test; assay type: in vivo, mouse; settings: amylin at 10 mg/kg; haloperidol 1 mg/kg; all prepulse levels tested (74, 78, and 82 dB); 120 dB stimulus; FIG. 5
Source text: as §1
The prepulse inhibition (PPI) test measures the reflex response to externally applied auditory stimulation (acoustic startle response) and is related to the deficiency in sensory-motor gating capacity seen in schizophrenia. The acoustic startle reflex is a very basic response to strong exteroceptive stimuli and is widely used to assess sensorimotor reactivity in animals and humans. A weak auditory stimulus (prepulse, 74-82 dB) given prior to the strong acoustic stimulus (120 dB) blunts the startle response. This blunting of the startle response is referred to as prepulse inhibition. […] Antipsychotics increase the ability of the prepulse stimulus to blunt the startle response to the strong stimulus. Some psychotomimetic agents, such as phencyclidine (PCP) and ketamine, can actually reduce the percent prepulse inhibition and stimulate a psychotic-like state in animals, which can be antagonized by antipsychotic agents.
The mice were placed into an animal holder and the holder placed onto a transducer platform in an acoustic chamber. A weak auditory stimulus (prepulse) of 74, 78 and 82 dB was given prior to the strong acoustic stimulus (120 dB). The amount of the animal's “reaction” to the strong stimulus was recorded. […]

mice [3] = experiment: phencyclidine (PCP)-induced locomotion test; assay type: in vivo, mouse
Source text: as §1
The PCP-induced locomotion test is used with the open field activity chambers and measures locomotion, rearing, and stereotypic activity under amphetamine/PCP-induced conditions. The test has predictive validity for some antipsychotic drugs that normalize the hyperactivity and stereotypic behavior seen with amphetamine and PCP. See, for example, Williams et al. (2006) Prog. Neuropsychopharmacol. Biol. Psychiatry 30:239-243. […] The animals were then placed in the center of an open field and activity was recorded for 60 minutes. […] CZP is an atypical, second generation antipsychotic drug has a mixed receptor profile, including the dopamine receptor.

[4] = tested on: Male, Sprague-Dawley rats; experiment: sugar withdrawal paradigm with restraint stress (stress-induced feeding); assay type: in vivo; settings: rat amylin 300 μg/kg/d by osmotic pump
Protocol: Male, Sprague-Dawley® rats were submitted to a sugar withdrawal paradigm and observed for effects of stress on sugar intake. […] All rats were provided with ad libitum access to standard chow, water, and a 30% sucrose drink. Subsequently, the sucrose drink was removed and half of the rats were subjected, daily, to 3 h of mild restraint stress for 3 successive days. After 3 days, sucrose was provided and its daily average consumption was measured over 4 days. Chow intake was also measured over the 3 days of withdrawal and stress and over the following 4 days when sucrose was re-introduced. No restraint was applied during the 4 days of sucrose re-introduction. Results of this assay are shown in FIG. 1 where * is P<0.05 by ANOVA and Fisher LSD post-hoc analyses.

mice [5] = experiment: forced swim test (FST); assay type: in vivo, mouse; settings: delivered continuously for two weeks by subcutaneous osmotic pumps; 5 minute trial session; FIG. 4
Source text: as §1
The forced swim test (FST) is a commonly used paradigm to evaluate antidepressant activity of drugs. This test is based on measurement of the animal's floating time in a tank filled with water. When rats or mice are forced to swim in a deep cylinder with tepid water they become nearly immobile and cease trying to escape. This characteristic immobile posture is thought to reflect a depressive-like state and is readily influenced by a wide variety of antidepressants. See, for example, Hédou et al. (2001) Pharmacol., Biochem. Behav. […] Antidepressants decrease the immobility time in the FST. Rat amylin or vehicle was delivered continuously for two weeks to mice by subcutaneously implanted osmotic pumps prior to the FST. On day one, the mice were placed in the water tank for a 15 minute pre-swim session. On day two, the mice were placed back into the water tank for assessment of climbing, swimming, and immobility over a 5 minute trial session.

[6] = tested on: Adult, male Sprague-Dawley rats; experiment: weight gain induced by clozapine; assay type: in vivo; settings: rat amylin 10 μg/kg/day co-administered with clozapine […], osmotic pump, 4 weeks; FIG. 7B
mice [7] = experiment: stress-induced hyperthermia (SIH) assay; assay type: in vivo, mouse
Source text: as §1
Body temperature and emotional state are closely related in humans, and stress-induced hyperthermia (SIH) in mice is considered to have predictive validity for certain human anxiety/stress disorders. The SIH assay assesses the effect of anxiolytics or test agents on stress-induced hyperthermia and measures the intrinsic effects of these drugs on core body temperature of the animal. See, for example, Zethof et al. (1994) Physiol. Behav. […] Anxiolytics blunt the increase in body temperature, or hyperthermic response, following stress exposure. […] Mice were subjected to two sequential rectal temperature measurements ten minutes apart. The stress from the first measurement induces hyperthermia which was measured by the second temperature measurement. The difference between the two temperatures (ΔT) was the stress-induced hyperthermia.

With CC[C@H](C)[C@H](NC(=O)[C@@H]1CCCN1C(=O)CNC(=O)[C@H](Cc1ccccc1)NC(=O)[C@H](CC(N)=O)NC(=O)[C@H](CC(N)=O)NC(=O)[C@H](CO)NC(=O)[C@H](CO)NC(=O)[C@H](Cc1c[nH]cn1)NC(=O)[C@@H](NC(=O)[C@H](CC(C)C)NC(=O)[C@H](Cc1ccccc1)NC(=O)[C@H](CC(N)=O)NC(=O)[C@H](C)NC(=O)[C@H](CC(C)C)NC(=O)[C@H](CCCNC(=N)N)NC(=O)[C@H](CCC(N)=O)NC(=O)[C@@H](NC(=O)[C@H](C)NC(=O)[C@@H]1CSSC[C@H](NC(=O)[C@@H](N)CCCCN)C(=O)N[C@@H](CC(N)=O)C(=O)N[C@@H]([C@@H](C)O)C(=O)N[C@@H](C)C(=O)N[C@@H]([C@@H](C)O)C(=O)N1)[C@@H](C)O)C(C)C)C(=O)N[C@@H](CC(C)C)C(=O)N1CCC[C@H]1C(=O)N1CCC[C@H]1C(=O)N[C@H](C(=O)N[C@@H](CC(N)=O)C(=O)N[C@H](C(=O)NCC(=O)N[C@@H](CO)C(=O)N[C@@H](CC(N)=O)C(=O)N[C@H](C(=O)N[C@@H](Cc1ccc(O)cc1)C(N)=O)[C@@H](C)O)C(C)C)[C@@H](C)O [^25,28,29Pro-h-amylin, reference compound] as the compound, how does the “amylin activity in vivo” value (test animals) read?
Its value is “show amylin activity in vivo”.

O=C1CC2(CCCC2)CC(=O)N1CCCCN1CCN(c2ncccn2)CC1 [buspirone, reference compound] was tested. Which “reduction in marble burying, statistical significance” value (mice [1]) did it give?
Its value is “statistically significant”.

What about the “number of marbles buried in 30 minutes” value (mice [1]) of the same compound?
Its value is “reduced the number of marbles buried”.

For O=C(CCCN1CCC(O)(c2ccc(Cl)cc2)CC1)c1ccc(F)cc1 [halperidol, haloperidol, reference compound], which “percent of prepulse inhibition” value (mice [2]) is on record?
Its value is “significantly increased the percent of prepulse inhibition”.

Which baseline activity (mice [3]; agent alone, without PCP) does the source give for “KCNTATCATQRLANFLVRSSNNLGPVLPPTNVGSNTY (listed as Rattus sp.) [rat amylin, 37-amino acid polypeptide hormone; rat species variant of amylin]” here?
The baseline activity was “did not affect baseline activity”.

And the “rearing activity and PCP-induced rearing activity” value (mice [3]; open field, with and without 5 mg/kg PCP)?
Its value is “reduced rearing activity and PCP-induced rearing activity”.

And the total distance traveled (mice [3]; rat amylin 0.1, 1.0 or 10 mg/kg or 3 mg/kg clozapine 15-30 minutes prior to 5 mg/kg PCP, total, central, and peripheral, 60 minutes, FIG. 6)?
Its total distance traveled is “significantly reduced the total distance traveled”.

And the “average sucrose to chow consumption ratio (as % of baseline)” value ([4]; 3 h mild restraint stress daily for 3 days, sucrose intake over following 4 days, FIG. 1A)?
The value was “prevents the increase in the average sucrose to chow consumption ratio”.

And the “chow consumption (stress-induced decrease)” value ([4]; restraint stress, FIG. 1B)?
Its value is “protects against this behavioral response to stress”.

What about the “reduction in marble burying, statistical significance” value (mice [1]) of the same compound?
The value was “statistically significant”.

And the “number of marbles buried in 30 minutes” value (mice [1])?
Its value is “reduced the number of marbles buried”.

What about the “time spent in the immobile state” value (mice [5]) of the same compound?
The value was “significantly reduced the time spent in the immobile state”.

And the “weight gain observed with clozapine alone” value [6]?
Its value is “prevented the weight gain”.

What about the “SIH response (ΔT)” value (mice [7]; acute, 60 minutes before the assay, rat amylin 0.1, 1.0 or 10 mg/kg, chlordiazepoxide 10 mg/kg, FIG. 2) of the same compound?
The value was “blunted the SIH response”.

What about the “SIH response (ΔT), chronic infusion” value (mice [7]; subcutaneously implanted pumps, amylin 300 μg/kg/d, CDP 10 mg/kg/d, at both 1 week and 4 weeks of administration) of the same compound?
The value was “significantly blunted the SIH response”.

And the “percent of prepulse inhibition” value (mice [2])?
Its value is “significantly increased the percent of prepulse inhibition”.

For “^28Pro-h-amylin (KCNTATCATQRLANFLVHSSNNFGAILPSTNVGSNTY)”, which “amylin activity in vivo” value (test animals) is on record?
Its value is “show amylin activity in vivo”.

Which “amylin activity in vivo” value (test animals) does the source give for “des-^1Lys-h-amylin (CNTATCATQRLANFLVHSSNNFGAILSSTNVGSNTY)” here?
Its value is “show amylin activity in vivo”.

Which “amylin activity in vivo” value (test animals) does the source give for “des-^1Lys^18Arg^25,28Pro-h-amylin (CNTATCATQRLANFLVRSSNNFGPILPSTNVGSNTY)” here?
The value was “show amylin activity in vivo”.
